In patent publication US6479435B1, “Diaryl ethers and processes for their preparation and herbicidal and desiccant compositions containing them” (ISK Americas Incorporated, priority 1997, dated 2002):

Tests used:
Assay type in all cases: in vivo
[1] = tested on: upland rice (Oryza sp., var.Tebonnet, RICE); experiment: Post-emerge greenhouse test, crop damage rating; conditions: 14 days after application
How it was run: (§1)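 Scores use a 0 (no damage) to 100 (complete kill) scale, taken 14 days after a foliar spray. Acetone solutions with 0.25% v/v non-ionic surfactant were applied by track sprayer at 187 l/ha and 63-1000 g ai/ha to bottom-watered 2-3 leaf plants.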

[2] = tested on: field corn (Zea mays L., var. Dekalb 535, CORN); experiment: Post-emerge greenhouse test, crop damage rating; conditions: 14 days after application
How it was run: as §1

[3] = tested on: soybean (Glycine max L., var. Pella 86, SOY); experiment: Post-emerge greenhouse test, crop damage rating; conditions: 14 days after application
How it was run: as §1

[4] = tested on: common ragweed (Ambrosia artemisiifolia L., AMBEL); experiment: Post-emerge greenhouse herbicide test, phytotoxicity rating; conditions: 14 days after application
How it was run: as §1

[5] = tested on: large crabgrass (Digitaria sanguinalis, DIGSA); experiment: as above; conditions: 14 days after application
How it was run: as §1

[6] = tested on: green foxtail (Setaria viridis, SETVI); experiment: as above; conditions: 14 days after application
How it was run: as §1

[7] = tested on: barnyardgrass (Echinochloa crusgalli, ECHCG); experiment: as above; conditions: 14 days after application
How it was run: as §1

[8] = tested on: redroot pigweed (Amaranthus retroflexus, AMARE); experiment: as above; conditions: 14 days after application
How it was run: as §1

[9] = tested on: sicklepod (Cassia obtusifolia, CASOB); experiment: as above; conditions: 14 days after application
How it was run: as §1

[10] = tested on: ivyleaf morningglory (Ipomoea hederacea, IPOHE); experiment: as above; conditions: 14 days after application
How it was run: as §1

[11] = tested on: velvetleaf (Abutilon theophrasti, ABUTH); experiment: as above; conditions: 14 days after application
How it was run: as §1

[12] = tested on: lambsquarters (Chenopodium album, CHEAL); experiment: as above; conditions: 14 days after application
How it was run: as §1

[13] = tested on: Johnsongrass (Sorghum halepense, SORHA); experiment: as above; conditions: 14 days after application
How it was run: as §1

[14] = tested on: upland rice (Oryza sp., var.Tebonnet, RICE); experiment: Pre-emerge greenhouse test, crop damage rating; conditions: 14 days after application, rating scale 0-100
How it was run: (§2)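 Visual 0–100 injury rating (100 = all plants dead) taken 14 days after treatment. Rates of 125–1000 g ai/ha in acetone, 187 l/ha, were sprayed onto soil one day post-sowing; pots were surface-watered to incorporate, then bottom-watered.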

[15] = tested on: field corn (Zea mays L., var. Dekalb 535, CORN); experiment: Pre-emerge greenhouse test, crop damage rating; conditions: 14 days after application, rating scale 0-100
How it was run: as §2

[16] = tested on: large crabgrass (Digitaria sanguinalis, DIGSA); experiment: Pre-emerge greenhouse herbicide test, phytotoxicity rating; conditions: 14 days after application, rating scale 0-100
How it was run: as §2

[17] = tested on: green foxtail (Setaria viridis, SETVI); experiment: as above; conditions: 14 days after application, rating scale 0-100
How it was run: as §2

[18] = tested on: barnyardgrass (Echinochloa crusgalli, ECHCG); experiment: as above; conditions: 14 days after application, rating scale 0-100
How it was run: as §2

[19] = tested on: redroot pigweed (Amaranthus retroflexus, AMARE); experiment: as above; conditions: 14 days after application, rating scale 0-100
How it was run: as §2

[20] = tested on: common ragweed (Ambrosia artemisiifolia L., AMBEL); experiment: as above; conditions: 14 days after application, rating scale 0-100
How it was run: as §2

[21] = tested on: sicklepod (Cassia obtusifolia, CASOB); experiment: as above; conditions: 14 days after application, rating scale 0-100
How it was run: as §2

[22] = tested on: ivyleaf morningglory (Ipomoea hederacea, IPOHE); experiment: as above; conditions: 14 days after application, rating scale 0-100
How it was run: as §2

[23] = tested on: velvetleaf (Abutilon theophrasti, ABUTH); experiment: as above; conditions: 14 days after application, rating scale 0-100
How it was run: as §2

[24] = tested on: lambsquarters (Chenopodium album, CHEAL); experiment: as above; conditions: 14 days after application, rating scale 0-100
How it was run: as §2

[25] = tested on: Johnsongrass (Sorghum halepense, SORHA); experiment: as above; conditions: 14 days after application, rating scale 0-100
How it was run: as §2

[26] = tested on: soybean (Glycine max L., var. Pella 86, SOY); experiment: Pre-emerge greenhouse test, crop damage rating; conditions: 14 days after application, rating scale 0-100
How it was run: as §2

Structure (SMILES): O=c1n(CCCF)nnn1-c1cc(Oc2ccc(C(F)(F)F)cn2)c(Cl)cc1Cl [Compound 6-9]
- RICE crop damage rating (0-100) ([1]; 63 g al/ha): 0
- RICE crop damage rating (0-100) ([1]; 250 g al/ha): 0
- CORN crop damage rating (0-100) ([2]; 63 g al/ha): 0
- CORN crop damage rating (0-100) ([2]; 250 g al/ha): 0
- SOY crop damage rating (0-100) ([3]; 63 g al/ha): 0
- SOY crop damage rating (0-100) ([3]; 250 g al/ha): 0
- AMBEL phytotoxicity rating (0-100) ([4]; 63 g al/ha): 0
- AMBEL phytotoxicity rating (0-100) ([4]; 250 g al/ha): 0
- DIGSA phytotoxicity rating (0-100) ([5]; 63 g al/ha): 0
- DIGSA phytotoxicity rating (0-100) ([5]; 250 g al/ha): 0
- SETVI phytotoxicity rating (0-100) ([6]; 63 g al/ha): 0
- SETVI phytotoxicity rating (0-100) ([6]; 250 g al/ha): 0
- ECHCG phytotoxicity rating (0-100) ([7]; 63 g al/ha): 0
- ECHCG phytotoxicity rating (0-100) ([7]; 250 g al/ha): 0
- AMARE phytotoxicity rating (0-100) ([8]; 63 g al/ha): 0
- AMARE phytotoxicity rating (0-100) ([8]; 250 g al/ha): 0
- CASOB phytotoxicity rating (0-100) ([9]; 63 g al/ha): 0
- CASOB phytotoxicity rating (0-100) ([9]; 250 g al/ha): 0
- IPOHE phytotoxicity rating (0-100) ([10]; 63 g al/ha): 0
- IPOHE phytotoxicity rating (0-100) ([10]; 250 g al/ha): 0
- ABUTH phytotoxicity rating (0-100) ([11]; 63 g al/ha): 0
- ABUTH phytotoxicity rating (0-100) ([11]; 250 g al/ha): 0
- CHEAL phytotoxicity rating (0-100) ([12]; 63 g al/ha): 0
- CHEAL phytotoxicity rating (0-100) ([12]; 250 g al/ha): 0
- SORHA phytotoxicity rating (0-100) ([13]; 63 g al/ha): 0
- SORHA phytotoxicity rating (0-100) ([13]; 250 g al/ha): 0
- crop damage rating RICE ([14]; 125 g ai/ha): 0
- crop damage rating RICE ([14]; 500 g ai/ha): 0
- crop damage rating CORN ([15]; 125 g ai/ha): 0
- crop damage rating CORN ([15]; 500 g ai/ha): 0
- phytotoxicity rating DIGSA ([16]; 125 g ai/ha): 0
- phytotoxicity rating DIGSA ([16]; 500 g ai/ha): 0
- phytotoxicity rating SETVI ([17]; 125 g ai/ha): 0
- phytotoxicity rating SETVI ([17]; 500 g ai/ha): 0
- phytotoxicity rating ECHCG ([18]; 125 g ai/ha): 0
- phytotoxicity rating ECHCG ([18]; 500 g ai/ha): 0
- phytotoxicity rating AMARE ([19]; 125 g ai/ha): 0
- phytotoxicity rating AMARE ([19]; 500 g ai/ha): 0
- phytotoxicity rating AMBEL ([20]; 125 g ai/ha): 0
- phytotoxicity rating AMBEL ([20]; 500 g ai/ha): 0
- phytotoxicity rating CASOB ([21]; 125 g ai/ha): 0
- phytotoxicity rating CASOB ([21]; 500 g ai/ha): 0
- phytotoxicity rating IPOHE ([22]; 125 g ai/ha): 0
- phytotoxicity rating IPOHE ([22]; 500 g ai/ha): 0
- phytotoxicity rating ABUTH ([23]; 125 g ai/ha): 0
- phytotoxicity rating ABUTH ([23]; 500 g ai/ha): 0
- phytotoxicity rating CHEAL ([24]; 125 g ai/ha): 0
- phytotoxicity rating CHEAL ([24]; 500 g ai/ha): 0
- phytotoxicity rating SORHA ([25]; 125 g ai/ha): 0
- phytotoxicity rating SORHA ([25]; 500 g ai/ha): 0
- crop damage rating SOY ([26]; 125 g ai/ha): 0
- crop damage rating SOY ([26]; 500 g ai/ha): 0

Structure (SMILES): COc1cc(OC)nc(Oc2cc(-n3nnn(CCCF)c3=O)c(F)cc2Cl)n1 [Compound 6-15]
- RICE crop damage rating (0-100) ([1]; 63 g al/ha): 0
- RICE crop damage rating (0-100) ([1]; 500 g al/ha): 5
- CORN crop damage rating (0-100) ([2]; 63 g al/ha): 0
- CORN crop damage rating (0-100) ([2]; 500 g al/ha): 5
- SOY crop damage rating (0-100) ([3]; 63 g al/ha): 0
- SOY crop damage rating (0-100) ([3]; 500 g al/ha): 40
- AMBEL phytotoxicity rating (0-100) ([4]; 63 g al/ha): 0
- AMBEL phytotoxicity rating (0-100) ([4]; 500 g al/ha): 20
- DIGSA phytotoxicity rating (0-100) ([5]; 63 g al/ha): 0
- DIGSA phytotoxicity rating (0-100) ([5]; 500 g al/ha): 0
- SETVI phytotoxicity rating (0-100) ([6]; 63 g al/ha): 0
- SETVI phytotoxicity rating (0-100) ([6]; 500 g al/ha): 40
- ECHCG phytotoxicity rating (0-100) ([7]; 63 g al/ha): 0
- ECHCG phytotoxicity rating (0-100) ([7]; 500 g al/ha): 0
- AMARE phytotoxicity rating (0-100) ([8]; 63 g al/ha): 20
- AMARE phytotoxicity rating (0-100) ([8]; 500 g al/ha): 95
- CASOB phytotoxicity rating (0-100) ([9]; 63 g al/ha): 20
- CASOB phytotoxicity rating (0-100) ([9]; 500 g al/ha): 40
- IPOHE phytotoxicity rating (0-100) ([10]; 63 g al/ha): 20
- IPOHE phytotoxicity rating (0-100) ([10]; 500 g al/ha): 70
- ABUTH phytotoxicity rating (0-100) ([11]; 63 g al/ha): 60
- ABUTH phytotoxicity rating (0-100) ([11]; 500 g al/ha): 99
- CHEAL phytotoxicity rating (0-100) ([12]; 63 g al/ha): 50
- CHEAL phytotoxicity rating (0-100) ([12]; 500 g al/ha): 90
- SORHA phytotoxicity rating (0-100) ([13]; 63 g al/ha): 0
- SORHA phytotoxicity rating (0-100) ([13]; 500 g al/ha): 10
- crop damage rating RICE ([14]; 125 g ai/ha): 0
- crop damage rating RICE ([14]; 500 g ai/ha): 10
- crop damage rating CORN ([15]; 125 g ai/ha): 0
- crop damage rating CORN ([15]; 500 g ai/ha): 100
- phytotoxicity rating DIGSA ([16]; 125 g ai/ha): 10
- phytotoxicity rating DIGSA ([16]; 500 g ai/ha): 60
- phytotoxicity rating SETVI ([17]; 125 g ai/ha): 10
- phytotoxicity rating SETVI ([17]; 500 g ai/ha): 90
- phytotoxicity rating ECHCG ([18]; 125 g ai/ha): 0
- phytotoxicity rating ECHCG ([18]; 500 g ai/ha): 0
- phytotoxicity rating AMARE ([19]; 125 g ai/ha): 30
- phytotoxicity rating AMARE ([19]; 500 g ai/ha): 100
- phytotoxicity rating AMBEL ([20]; 125 g ai/ha): 0
- phytotoxicity rating AMBEL ([20]; 500 g ai/ha): 0
- phytotoxicity rating CASOB ([21]; 125 g ai/ha): 0
- phytotoxicity rating CASOB ([21]; 500 g ai/ha): 30
- phytotoxicity rating IPOHE ([22]; 125 g ai/ha): 0
- phytotoxicity rating IPOHE ([22]; 500 g ai/ha): 10
- phytotoxicity rating ABUTH ([23]; 125 g ai/ha): 20
- phytotoxicity rating ABUTH ([23]; 500 g ai/ha): 100
- phytotoxicity rating CHEAL ([24]; 125 g ai/ha): 20
- phytotoxicity rating CHEAL ([24]; 500 g ai/ha): 100
- phytotoxicity rating SORHA ([25]; 125 g ai/ha): 0
- phytotoxicity rating SORHA ([25]; 500 g ai/ha): 10
- crop damage rating SOY ([26]; 125 g ai/ha): 0
- crop damage rating SOY ([26]; 500 g ai/ha): 0
